Article PMC5324278, “Novel synthetic analogues of avian β-defensin-12: the role of charge, hydrophobicity, and disulfide bridges in biological functions” (BMC Microbiology, 2017)
Where two headings read alike, the source gives them in different places. Bridge positions count the residues as written; N and C are the ends. Ends that are not written are not given here.

Tests used:
HD11 cells = assay: MTT cell cytotoxicity assay; format: cell-based, chicken; details: 256 μg/ml; 4, 12, 24 and 48 hours; Student t-test treated vs untreated; n = 3; Figure S1
Protocol: (§1) Chicken macrophage cell lines MQ-NCSU and HD11 were maintained in RPMI-1640 media supplemented with 10% fetal bovine serum (FBS), 2% chicken serum, 100 U/ml penicillin and 100 μg/ml streptomycin (Sigma-Aldrich) at 37 °C in humidified air with 5% CO2. CHO-K1 cells were cultured in the same media without 2% chicken serum. For CCR2-transfected CHO-K1 cells, the medium was supplemented with 500 μg/ml G418 was added (Sigma-Aldrich). Murine immature dendritic cell line JAWSII (ATCC CRL-11904™) was cultured in Alpha minimum essential medium containing 4 mM L-glutamine, 1 mM sodium pyruvate, 5 ng/ml murine Granulocyte macrophage colony-stimulating factor (GM-CSF), 20% FBS, 100 U/ml penicillin and 100 μg/ml streptomycin at 37 °C in humidified air with 5% CO2. The cell cytotoxicity was determined using the MTT (3-(4, 5-dimethylthiazol-2-yl)-2, 5-diphenyltetrazolium bromide metabolic activity assay according to the manufacturer’s instruction (Thermo Fisher Scientific). Briefly, cells (5 × 10^3 cells/well) were seeded in 96-well tissue culture plates, incubated overnight and treated with AvBDs at concentrations of 4, 16, 64 and 256 μg/ml for 4, 12, 24 and 48 h at 37 °C. After treatment, 20 μl of 12 mM MTT solution was added to each well. The plate was incubated for 4 h and read at 540 nm. Viability was expressed as percentage of viable cells relative to the untreated control. The experiments were performed in triplicate.

MQ-NCSU cells = assay: MTT cell cytotoxicity assay; format: cell-based, chicken; details: 256 μg/ml; 4, 12, 24 and 48 hours; Student t-test treated vs untreated; n = 3; Figure S1
Protocol: as §1

[1] = system: P. aeruginosa (ATCC 27853); format: cell-based, Pseudomonas aeruginosa
Protocol: (§2) The minimum inhibitory concentrations (MIC) of AvBDs were determined according to the guidelines of the Clinical and Laboratory Standards Institute (CLSI). The Muller Hinton II broth used in standard MIC assays contained 20–25 mg/L of calcium and 10–12.5 mg/L of magnesium. Modified MICs of AvBDs were also determined under a low-salt and low-nutrient condition by using 100× diluted Muller Hinton II broth containing 0.2 mg/L of calcium, 0.1 mg/L magnesium and 5 mM (292 mg/L) NaCl. MIC obtained under the low-salt and low-nutrient condition was referred to as MIC-ls. AvBD peptides were two-fold serially diluted (2 to 256 μg/ml) in a 96-well microtiter plate. An equal volume (μl) of bacterial suspension was added to each well of the plate. The final bacterial concentration in the wells was 5 × 10^5 CFU/ml. […] To complement MIC-ls assays, the minimum bactericidal concentrations (MBC) were evaluated by sub-culturing the contents of the first two clear wells obtained in the MIC-ls assay onto LB agar plates. All assays were conducted in triplicate. The lowest peptide concentration inhibiting more than 99% of bacterial growth was defined as MBC-ls. AvBD analogues were regarded as bactericidal if the MBC was no more than four times the MIC [29].

E. coli (ATCC 25922) = format: cell-based, Escherichia coli
Protocol: as §2

S. aureus (ATCC 29213) = format: cell-based, Staphylococcus aureus
Protocol: as §2

[2] = system: avian and mammalian cell lines; details: previous findings; cited from earlier work
Protocol: Data on the highest peptide concentration (256 μg/ml) at various exposure times were presented in Additional file 1: Figure S1. The results were consistent with our previous findings that AvBD-6 and AvBD-12 were non-cytotoxic to avian and mammalian cell lines.

[3] = system: Salmonella enteric serovar Typhimurium (ATCC 14028); format: cell-based
Protocol: (§3) Escherichia coli (ATCC 25922), Pseudomonas aeruginosa (ATCC 27853), Salmonella enteric serovar Typhimurium (ATCC 14028) and Staphylococcus aureus (ATCC 29213) were used to assess the antimicrobial activity of AvBD analogues. All bacterial strains were grown on Luria-Bertani (LB) agar plates or Trypticase Soy Agar with 5% Sheep Blood (TSA, Thermo Fisher Scientific) plates at 37 °C. Antimicrobial activity was determined by a colony counting assay. In brief, bacteria were resuspended in 100-fold diluted Mueller Hinton II broth with 5 mM NaCl (minimal growth medium) to obtain a final bacterial concentration of 2 × 10^5 CFU/ml. Twenty-five microliters of bacterial suspension and 25 μl of AvBD analogue solution were mixed in the wells of a 96-well polypropylene microtiter plate (Nunc™, Thermo Fisher Scientific). The final peptide concentrations were 2, 4, 8, 16, 32, 64 and 128 μg/ml. The minimal growth medium without AvBD peptide was included as a negative control. The bacterial-peptide mixtures were incubated at 37 °C for 2 h, ten-fold serially diluted and plated on LB agar plates. The numbers of bacteria colonies were enumerated after 16 h of incubation at 37 °C. Antimicrobial activity was expressed as percent of killing using the following formula: (CFUcontrol - CFUtreated) / CFUcontrol × 100%. To assess the resistance of AvBD analogues to sodium chloride (NaCl), antimicrobial assays were carried out in the presence of 5 mM, 50 mM, 100 mM or 150 mM NaCl. All assays were performed in triplicate.

[4] = system: Pseudomonas aeruginosa (ATCC 27853); format: cell-based
Protocol: as §3

[5] = system: Staphylococcus aureus (ATCC 29213); format: cell-based
Protocol: as §3

[6] = system: Escherichia coli (ATCC 25922); format: cell-based
Protocol: as §3

CHO-K1 cells = assay: MTT cell cytotoxicity assay; format: cell-based; details: 256 μg/ml; 4, 12, 24 and 48 hours; Student t-test treated vs untreated; n = 3; Figure S1
Protocol: as §1

[7] = system: S. Typhimurium (ATCC 14028); format: cell-based, Salmonella enteric serovar Typhimurium
Protocol: as §2

JAWSII cells = assay: MTT cell cytotoxicity assay; format: cell-based, murine; details: 256 μg/ml; 4, 12, 24 and 48 hours; Student t-test treated vs untreated; n = 3; Figure S1
Protocol: as §1, with “The experiments were performed in triplicate.” left out

[8] = system: mouse immature dendritic JAWSII cells; assay: Chemotaxis assay, 48-well microchemotaxis chamber; format: cell-based; details: peptide 64 μg/ml
Protocol: Migration of JAWSII and CCR2-CHO-K1 cells in response to AvBD-12 analogues was determined using a 48-well microchemotaxis chamber technique as previously described. Chemotaxis buffer (Minimum Essential Medium containing 0.1% BSA, 100U/ml penicillin, and 100 μg/ml streptomycin) and bacterial peptide N-Formyl-methionyl-leucyl-phenylalanine (fMLF, Sigma-Aldrich) were included as negative and positive controls, respectively. The results were presented as chemotactic index (C.I.). C.I. = number of migrated cells induced by AvBDs / number of migrated cells induced by chemotactic buffer. The assay was repeated five times.

[9] = 100× diluted Muller Hinton II broth, 5 mM NaCl, 5 × 10^5 CFU/ml, 37 °C, 24 h, triplicate
[10] = CLSI, standard Muller Hinton II broth, 5 × 10^5 CFU/ml, 37 °C, 24 h, triplicate
[11] = sub-culture of clear MIC-ls wells on LB agar, lowest concentration inhibiting more than 99% of growth, triplicate
[12] = peptide 16 μg/ml, 2 h at 37 °C, 100-fold diluted Mueller Hinton II broth with 5 mM NaCl, colony count, n = 3

## GPDSCNHDRGLCRVGNCNPGEYLAKYCFEPVILCCKPLSPTPTKT (disulfide 5-34, 12-27, 17-35) [AvBD-12, avian β-defensin-12]
HD11 cells
  metabolic activity (viability relative to untreated control), HD11: No significant difference was found
MQ-NCSU cells
  metabolic activity (viability relative to untreated control), MQ-NCSU: No significant difference was found
[1]; [9]
  MIC-ls P. aeruginosa (ATCC 27853): 128 µg/mL
[1]; [10]
  MIC P. aeruginosa (ATCC 27853): >256 µg/mL
[1]; [11]
  MBC-ls P. aeruginosa (ATCC 27853): >256 µg/mL
E. coli (ATCC 25922); [9]
  MIC-ls E. coli (ATCC 25922): 32 µg/mL
E. coli (ATCC 25922); [10]
  MIC E. coli (ATCC 25922): 256 µg/mL
E. coli (ATCC 25922); [11]
  MBC-ls E. coli (ATCC 25922): 128 µg/mL
S. aureus (ATCC 29213); [9]
  MIC-ls S. aureus (ATCC 29213): 256 µg/mL
S. aureus (ATCC 29213); [10]
  MIC S. aureus (ATCC 29213): >256 µg/mL
S. aureus (ATCC 29213); [11]
  MBC-ls S. aureus (ATCC 29213): 256 µg/mL
[2]
  cytotoxicity to avian and mammalian cell lines: non-cytotoxic
[3]; [12]
  percent of killing of S. Typhimurium: 47.3%
[4]; [12]
  percent of killing of P. aeruginosa: 35.5%
[5]; [12]
  percent of killing of S. aureus: 52.9%
[6]; [12]
  percent of killing of E. coli: 74.4%
CHO-K1 cells
  metabolic activity (viability relative to untreated control), CHO-K1: No significant difference was found
[7]; [9]
  MIC-ls S. Typhimurium (ATCC 14028): 128 µg/mL
[7]; [10]
  MIC S. Typhimurium (ATCC 14028): >256 µg/mL
[7]; [11]
  MBC-ls S. Typhimurium (ATCC 14028): 256 µg/mL
JAWSII cells
  metabolic activity (viability relative to untreated control), JAWSII: No significant difference was found

## GPRSANHKRGLARVGNANPGKYLAKYSFRPVILSSKPLSPTPTKT [AvBD-12A3]
[1]; ATCC 27853, 24 h
  MBC-ls P. aeruginosa (ATCC 27853): 16 µg/mL
  MIC P. aeruginosa (ATCC 27853): >256 µg/mL
  MIC-ls P. aeruginosa (ATCC 27853): 8 µg/mL
E. coli (ATCC 25922); ATCC 25922, 24 h
  MBC-ls E. coli (ATCC 25922): 16 µg/mL
  MIC E. coli (ATCC 25922): 128 µg/mL
  MIC-ls E. coli (ATCC 25922): 4 µg/mL
S. aureus (ATCC 29213); ATCC 29213, 24 h
  MBC-ls S. aureus (ATCC 29213): 256 µg/mL
  MIC S. aureus (ATCC 29213): >256 µg/mL
  MIC-ls S. aureus (ATCC 29213): 128 µg/mL
[8]; migrated cells with peptide / with chemotactic buffer, n = 5
  chemotactic index (C.I.) for JAWSII cells: 3.74
[8]; relative to AvBD-12
  chemotactic activity for JAWSII cells, % of wild type: 56.6 % of wild type
[3]; ATCC 14028, 2 h, 16 μg/ml
  percent of killing of S. Typhimurium: 93.9%
[3]; ATCC 14028, 2 h, 32 μg/ml
  killing activity against S. Typhimurium retained at 150 mM NaCl: 30-60%
[4]; ATCC 27853, 2 h, 16 μg/ml
  percent of killing of P. aeruginosa: 100%
[4]; ATCC 27853, 2 h, 32 μg/ml
  killing potency against P. aeruginosa retained at 150 mM NaCl: approximately 80%
[5]; ATCC 29213, 2 h, 16 μg/ml
  percent of killing of S. aureus: 91.7%
[5]; ATCC 29213, 2 h, 64 μg/ml
  killing activity against S. aureus retained at 150 mM NaCl: 30-60%
[6]; ATCC 25922, 2 h, 16 μg/ml
  killing potency against E. coli retained at 150 mM NaCl: approximately 80%
  percent of killing of E. coli: 100%
CHO-K1 cells
  metabolic activity (viability relative to untreated control), CHO-K1: No significant difference was found
[7]; ATCC 14028, 24 h
  MBC-ls S. Typhimurium (ATCC 14028): 64 µg/mL
  MIC S. Typhimurium (ATCC 14028): >256 µg/mL
  MIC-ls S. Typhimurium (ATCC 14028): 16 µg/mL

## SPIHACRYQRGVCIPGPCRWPYYRVGSCGSGLKSCCVRNRWA (disulfide 6-35, 13-28, 18-36) [AvBD-6, avian β-defensin-6, reference compound]
HD11 cells
  metabolic activity (viability relative to untreated control), HD11: No significant difference was found
MQ-NCSU cells
  metabolic activity (viability relative to untreated control), MQ-NCSU: No significant difference was found
[1]; [9]
  MIC-ls P. aeruginosa (ATCC 27853): 64 µg/mL
[1]; [10]
  MIC P. aeruginosa (ATCC 27853): >256 µg/mL
[1]; [11]
  MBC-ls P. aeruginosa (ATCC 27853): 128 µg/mL
E. coli (ATCC 25922); [9]
  MIC-ls E. coli (ATCC 25922): 4 µg/mL
E. coli (ATCC 25922); [10]
  MIC E. coli (ATCC 25922): 128 µg/mL
E. coli (ATCC 25922); [11]
  MBC-ls E. coli (ATCC 25922): 16 µg/mL
S. aureus (ATCC 29213); [9]
  MIC-ls S. aureus (ATCC 29213): 256 µg/mL
S. aureus (ATCC 29213); [10]
  MIC S. aureus (ATCC 29213): 256 µg/mL
S. aureus (ATCC 29213); [11]
  MBC-ls S. aureus (ATCC 29213): 256 µg/mL
[2]
  cytotoxicity to avian and mammalian cell lines: non-cytotoxic
CHO-K1 cells
  metabolic activity (viability relative to untreated control), CHO-K1: No significant difference was found
[7]; [9]
  MIC-ls S. Typhimurium (ATCC 14028): 16 µg/mL
[7]; [10]
  MIC S. Typhimurium (ATCC 14028): >256 µg/mL
[7]; [11]
  MBC-ls S. Typhimurium (ATCC 14028): 64 µg/mL
JAWSII cells
  metabolic activity (viability relative to untreated control), JAWSII: No significant difference was found
